Results published in ChEMBL document CHEMBL1201862, “PubChem BioAssay data set” (2004).
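The compound was tested at five concentrations on cells cultured in 96-well plates, with a 48-hour exposure period. GI50: concentration for 50% inhibition of growth.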 Calls of active or inactive are those of the source. No stated cut-off is given here; in the data, active = GI50 up to about 1.1 µM and inactive = higher.

Legend:
Assay in all cases: NCI tumour cell line growth inhibition, 48 h
SK-OV-3 = system: SK-OV-3
OVCAR-3 = system: OVCAR-3
CAKI-1 = system: CAKI-1
KM12 = system: KM12
SF-539 = system: SF-539
NCI-H460 = system: NCI-H460
UO-31 = system: UO-31
MOLT-4 = system: MOLT-4
SNB-19 = system: SNB-19
COLO 205 = system: COLO 205
SR = system: SR
HOP-62 = system: HOP-62
HCC 2998 = system: HCC 2998
UACC-257 = system: UACC-257
TK-10 = system: TK-10

Row | SMILES | GI50 (SK-OV-3) | GI50 (OVCAR-3) | GI50 (CAKI-1) | GI50 (KM12) | GI50 (SF-539) | GI50 (NCI-H460) | GI50 (UO-31) | GI50 (MOLT-4) | GI50 (SNB-19) | GI50 (COLO 205) | GI50 (SR) | GI50 (HOP-62) | GI50 (HCC 2998) | GI50 (UACC-257) | GI50 (TK-10)
1 | COc1cc2c(c(OC)c1OC)-c1ccc(SC)c(=O)cc1C(CC(=O)Oc1cccc(C#N)c1)C2 (configuration not stated) | 0.046 µM (active) | 0.232 µM (active) | 3.42 µM (inactive) | 0.292 µM (active) | 0.221 µM (active) | 0.365 µM (active) | 1.67 µM (inactive) | 0.536 µM (active) | 0.678 µM (active) | 0.336 µM (active) | 0.134 µM (active) | 0.638 µM (active) | 0.254 µM (active) | 0.516 µM (active) | 
2 | Cc1c(/C=N/NC(=O)c2ccccc2)c(=O)n(-c2ccccc2)n1C | > 100 µM (inactive) | > 100 µM (inactive) |  | > 100 µM (inactive) | > 100 µM (inactive) | > 100 µM (inactive) | > 100 µM (inactive) | > 100 µM (inactive) | > 100 µM (inactive) | > 100 µM (inactive) | > 100 µM (inactive) | > 100 µM (inactive) | > 100 µM (inactive) | > 100 µM (inactive) | > 100 µM (inactive)
3 | CCc1cc(Cc2ccc(C)c(NC(=O)C(=O)C3C(=O)NC(=O)NC3=O)c2CC)cc(C)c1NC(=O)C(=O)C1C(=O)NC(=O)NC1=O | > 100 µM (inactive) | > 100 µM (inactive) | 41.8 µM (inactive) | > 100 µM (inactive) | > 100 µM (inactive) | > 100 µM (inactive) | > 100 µM (inactive) | 93.5 µM (inactive) | > 100 µM (inactive) | > 100 µM (inactive) |  | > 100 µM (inactive) | > 100 µM (inactive) | > 100 µM (inactive) | > 100 µM (inactive)
4 | CCOC(=O)CNC1C(NC(C)=O)C(OC)OC2COC(c3ccccc3)OC21 (configuration not stated) | > 100 µM (inactive) | > 100 µM (inactive) | > 100 µM (inactive) | > 100 µM (inactive) | > 100 µM (inactive) | > 100 µM (inactive) | > 100 µM (inactive) | > 10 µM (inactive) | > 100 µM (inactive) | > 100 µM (inactive) |  |  | > 100 µM (inactive) | > 100 µM (inactive) | > 100 µM (inactive)
5 | CC1=CC(=O)NP(=O)(C23CC4CC(CC(C4)C2)C3)N1 (configuration not stated) | > 100 µM (inactive) | > 100 µM (inactive) | > 100 µM (inactive) | > 100 µM (inactive) | > 100 µM (inactive) | > 100 µM (inactive) | > 100 µM (inactive) | > 100 µM (inactive) | > 100 µM (inactive) | > 100 µM (inactive) | > 100 µM (inactive) | > 100 µM (inactive) |  | > 100 µM (inactive) | > 100 µM (inactive)
6 | COc1cc(Br)c(CC2(C#N)c3ccccc3C3C(N2C(=O)c2ccccc2)C3(Cl)Cl)cc1OC (configuration not stated) | > 65.5 µM (inactive) | 15.1 µM (inactive) |  | 23.1 µM (inactive) | 48 µM (inactive) | 4.83 µM (inactive) | 50.6 µM (inactive) | 2.03 µM (inactive) | > 65.5 µM (inactive) | 10.4 µM (inactive) | 4.01 µM (inactive) |  | 20.9 µM (inactive) | 15.8 µM (inactive) | > 65.5 µM (inactive)
7 | CCOC(=O)/C(C#N)=C/c1[nH]c(C(=O)OCc2ccccc2)c(C)c1C | > 100 µM (inactive) | > 100 µM (inactive) | > 100 µM (inactive) | > 100 µM (inactive) | > 100 µM (inactive) | > 100 µM (inactive) | > 100 µM (inactive) | > 100 µM (inactive) | > 100 µM (inactive) | > 100 µM (inactive) |  | > 100 µM (inactive) | > 100 µM (inactive) | > 100 µM (inactive) | > 100 µM (inactive)
8 | OCCCCOC(c1ccccc1)(c1ccccc1)c1ccccc1 | > 100 µM (inactive) | > 100 µM (inactive) | > 100 µM (inactive) | > 100 µM (inactive) | > 100 µM (inactive) | > 100 µM (inactive) | > 100 µM (inactive) | > 100 µM (inactive) |  | > 100 µM (inactive) | > 100 µM (inactive) | > 100 µM (inactive) | > 100 µM (inactive) | > 100 µM (inactive) | > 100 µM (inactive)
9 | C=CCNC1=C(C(=O)OCC)C(=O)CO1 |  | > 100 µM (inactive) | > 100 µM (inactive) |  | > 100 µM (inactive) | > 100 µM (inactive) | > 100 µM (inactive) | > 100 µM (inactive) | > 100 µM (inactive) |  | > 100 µM (inactive) |  | > 100 µM (inactive) | > 100 µM (inactive) | > 100 µM (inactive)
10 | c1ccc2[nH]c(-c3nc4ccccc4o3)nc2c1 | > 100 µM (inactive) | > 100 µM (inactive) |  | > 100 µM (inactive) | > 100 µM (inactive) | > 100 µM (inactive) | > 100 µM (inactive) | > 100 µM (inactive) |  | 49.9 µM (inactive) | > 100 µM (inactive) | > 100 µM (inactive) | > 100 µM (inactive) | > 100 µM (inactive) | 45.1 µM (inactive)
11 | COC(=O)[C@H](CC(C)C)NC(=O)[C@H](Cc1ccccc1)N1CC2C=CC1C2 (some centres not stated) | > 100 µM (inactive) | > 100 µM (inactive) | > 100 µM (inactive) | > 100 µM (inactive) | > 100 µM (inactive) | > 100 µM (inactive) | > 100 µM (inactive) | > 100 µM (inactive) | > 100 µM (inactive) | > 100 µM (inactive) |  | > 100 µM (inactive) | > 100 µM (inactive) | > 100 µM (inactive) | > 100 µM (inactive)
12 | COc1ccc2nc(NC(=O)C(=O)C(C(=O)c3ccccc3-c3ccccc3)C3OC(=O)c4ccccc43)sc2c1 (configuration not stated) | 27.4 µM (inactive) | 18.5 µM (inactive) |  | 21.6 µM (inactive) | 15.2 µM (inactive) | 21.7 µM (inactive) | 20.7 µM (inactive) | 19.5 µM (inactive) |  | 20.5 µM (inactive) |  | 16.2 µM (inactive) | 15.4 µM (inactive) | 22.4 µM (inactive) | 25.2 µM (inactive)
13 | CCCCN(CCCC)/C(=N\C#N)NCc1ccccc1 | 20.7 µM (inactive) | 13.6 µM (inactive) | 22.5 µM (inactive) | 21.3 µM (inactive) | 23.8 µM (inactive) | 13.9 µM (inactive) | 11.2 µM (inactive) |  | 19.6 µM (inactive) | 16.4 µM (inactive) |  | 28.4 µM (inactive) | 15.5 µM (inactive) | 27.4 µM (inactive) | 25.1 µM (inactive)
14 | O=C(O)CCc1coc2ccc(O)cc12 | > 100 µM (inactive) | > 100 µM (inactive) | > 100 µM (inactive) |  | > 100 µM (inactive) | > 100 µM (inactive) |  | > 100 µM (inactive) | > 100 µM (inactive) | > 100 µM (inactive) |  | > 100 µM (inactive) | > 100 µM (inactive) | > 100 µM (inactive) | > 100 µM (inactive)
15 | COc1ccc2c(c1)C1(C=N2)CCN(C(C)=O)CC1 | > 100 µM (inactive) | > 100 µM (inactive) | > 100 µM (inactive) | 57.7 µM (inactive) | > 100 µM (inactive) | > 100 µM (inactive) |  | 82 µM (inactive) |  | > 100 µM (inactive) |  | > 100 µM (inactive) | > 100 µM (inactive) | > 100 µM (inactive) | > 100 µM (inactive)
